Earlier results in patent US8486939B2, “Pyrimidinyl and 1,3,5-triazinyl benzimidazoles and their use in cancer therapy” (Pathway Therapeutics Inc., priority 2009, dated 2013).

How the values were obtained:
[1] = system: human tumor xenografts; details: mice with human tumor xenografts; cited from earlier work
[2] = system: PI3K; details: background, literature; cited from earlier work

| SMILES | tolerability [1] | PI3K isoform selectivity [2] |
| --- | --- | --- |
| O=c1cc(N2CCOCC2)oc2c(-c3ccccc3)cccc12 [LY294002] | well-tolerated |  |
| Cc1cc(C(C)Nc2ccccc2)c2nc(N3CCOCC3)cc(=O)n2c1 (stereo not drawn) [TGX221] |  | β-selective |
| FC(F)c1nc2ccccc2n1-c1nc(N2CCOCC2)nc(N2CCOCC2)n1 [ZSTK474] |  | non-selective |
